Legend:
Assay in all cases: biochemical
Format in all cases: binding
CBLB = biological target: T1, CBLB (Homo sapiens, UniProt Q13191); details: primary screen, 10 μM
T1 construct: the DNA-tagged SH2 domain concentrations used in this study were <0.1 nM; made in house; host or cells: HEK293 (transient transfection; unpurified extract)

FRK = biological target: T2, FRK (Homo sapiens, UniProt P42685); details: primary screen, 10 μM; read-out: percent of DMSO vehicle control
T2 construct: the DNA-tagged SH2 domain concentrations used in this study were <0.1 nM; made in house; host or cells: HEK293 (transient transfection; unpurified extract)

GADS = biological target: T3, GADS (Homo sapiens, UniProt O75791); details: primary screen, 10 μM; read-out: percent of DMSO vehicle control
T3 construct: the DNA-tagged SH2 domain concentrations used in this study were <0.1 nM; made in house; host or cells: HEK293 (transient transfection; unpurified extract)
T3 sequence (O75791 58-149 limits assumed): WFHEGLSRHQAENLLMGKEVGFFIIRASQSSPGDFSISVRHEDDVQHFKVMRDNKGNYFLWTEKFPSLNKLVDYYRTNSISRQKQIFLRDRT

ITK = biological target: T4, ITK (Homo sapiens, UniProt Q08881)
T4 construct: the DNA-tagged SH2 domain concentrations used in this study were <0.1 nM; made in house; host or cells: HEK293 (transient transfection, unpurified extract)
T4 sequence (Q08881 239-338 limits assumed): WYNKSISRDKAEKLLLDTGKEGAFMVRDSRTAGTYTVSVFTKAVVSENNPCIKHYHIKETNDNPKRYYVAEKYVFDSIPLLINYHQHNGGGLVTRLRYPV

LYN = biological target: T5, LYN (Homo sapiens, UniProt P07948); details: primary screen, 10 μM; read-out: percent of DMSO vehicle control
T5 construct: the DNA-tagged SH2 domain concentrations used in this study were <0.1 nM; made in house; host or cells: HEK293 (transient transfection, unpurified extract)

PLCG2(SH2dom.C-term.) = biological target: T6, PLCG2(SH2dom.C-term.) (Homo sapiens, UniProt P16885); details: primary screen, 10 μM; read-out: percent of DMSO vehicle control
T6 construct: SH2dom.C-term. denotes SH2 domain closest to C-terminus of protein; made in house; host or cells: HEK293 (transient transfection, unpurified extract)
T6 sequence (P16885 646-735 limits assumed): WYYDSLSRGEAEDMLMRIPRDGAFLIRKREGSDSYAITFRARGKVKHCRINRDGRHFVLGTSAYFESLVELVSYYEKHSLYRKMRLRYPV

PLCG2(SH2dom.N-term.) = biological target: T7, PLCG2(SH2dom.N-term.) (Homo sapiens, UniProt P16885); details: primary screen, 10 μM; read-out: percent of DMSO vehicle control
T7 construct: SH2dom.N-term. denotes SH2 domain closest to N-terminus of protein; made in house; host or cells: HEK293 (transient transfection, unpurified extract)
T7 sequence (P16885 532-635 limits assumed): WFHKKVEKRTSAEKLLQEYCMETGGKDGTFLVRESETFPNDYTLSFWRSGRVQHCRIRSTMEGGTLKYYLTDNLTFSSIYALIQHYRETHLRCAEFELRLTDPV

SH2B (SH2B1) = biological target: T8, SH2B (SH2B1) (Homo sapiens, UniProt Q9NRF2); details: primary screen, 10 μM; read-out: percent of DMSO vehicle control
T8 construct: made in house; host or cells: HEK293 (transient transfection), unpurified extract

SOCS4 = biological target: T9, SOCS4 (Homo sapiens, UniProt Q8WXH5)
T9 construct: made in house; host or cells: HEK293 (transient transfection), unpurified extract
T9 sequence (Q8WXH5 1-440): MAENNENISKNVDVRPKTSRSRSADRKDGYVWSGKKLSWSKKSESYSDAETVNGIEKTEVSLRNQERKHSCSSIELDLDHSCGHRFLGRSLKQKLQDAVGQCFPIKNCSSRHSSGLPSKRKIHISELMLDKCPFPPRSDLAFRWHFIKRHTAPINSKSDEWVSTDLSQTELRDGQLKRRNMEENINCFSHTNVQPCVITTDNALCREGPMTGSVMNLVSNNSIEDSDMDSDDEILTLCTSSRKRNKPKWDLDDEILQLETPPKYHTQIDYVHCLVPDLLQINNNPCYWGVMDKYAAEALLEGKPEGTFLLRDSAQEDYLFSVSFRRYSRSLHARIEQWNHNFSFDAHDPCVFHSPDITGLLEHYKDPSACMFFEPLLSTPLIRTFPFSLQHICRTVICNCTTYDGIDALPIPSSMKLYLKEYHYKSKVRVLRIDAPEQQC

TEC = biological target: T10, TEC (Homo sapiens, UniProt P42680); details: primary screen, 10 μM; read-out: percent of DMSO vehicle control
T10 construct: made in house; host or cells: HEK293 (transient transfection), unpurified extract
T10 sequence (P42680 1-631): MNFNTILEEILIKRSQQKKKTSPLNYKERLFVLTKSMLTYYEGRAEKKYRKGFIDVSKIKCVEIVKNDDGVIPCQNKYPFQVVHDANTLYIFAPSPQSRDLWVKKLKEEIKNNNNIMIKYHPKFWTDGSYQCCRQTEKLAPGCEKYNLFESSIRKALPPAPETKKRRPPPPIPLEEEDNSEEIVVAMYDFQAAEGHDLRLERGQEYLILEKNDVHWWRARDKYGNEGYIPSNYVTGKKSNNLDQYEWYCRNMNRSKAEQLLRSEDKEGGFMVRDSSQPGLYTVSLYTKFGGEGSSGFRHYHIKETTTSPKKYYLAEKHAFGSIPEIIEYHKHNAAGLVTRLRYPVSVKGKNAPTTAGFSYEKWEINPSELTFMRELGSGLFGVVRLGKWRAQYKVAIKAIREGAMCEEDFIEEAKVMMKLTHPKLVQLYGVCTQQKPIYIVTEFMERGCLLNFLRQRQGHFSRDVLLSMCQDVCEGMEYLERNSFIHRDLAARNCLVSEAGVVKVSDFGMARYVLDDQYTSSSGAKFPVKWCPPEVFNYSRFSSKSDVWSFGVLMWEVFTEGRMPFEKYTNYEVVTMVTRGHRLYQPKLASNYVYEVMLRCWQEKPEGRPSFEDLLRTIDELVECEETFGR

TXK = biological target: T11, TXK (Homo sapiens, UniProt P42681); details: primary screen, 10 μM; read-out: percent of DMSO vehicle control
T11 construct: made in house; host or cells: HEK293 (transient transfection), unpurified extract
T11 sequence (P42681 1-527): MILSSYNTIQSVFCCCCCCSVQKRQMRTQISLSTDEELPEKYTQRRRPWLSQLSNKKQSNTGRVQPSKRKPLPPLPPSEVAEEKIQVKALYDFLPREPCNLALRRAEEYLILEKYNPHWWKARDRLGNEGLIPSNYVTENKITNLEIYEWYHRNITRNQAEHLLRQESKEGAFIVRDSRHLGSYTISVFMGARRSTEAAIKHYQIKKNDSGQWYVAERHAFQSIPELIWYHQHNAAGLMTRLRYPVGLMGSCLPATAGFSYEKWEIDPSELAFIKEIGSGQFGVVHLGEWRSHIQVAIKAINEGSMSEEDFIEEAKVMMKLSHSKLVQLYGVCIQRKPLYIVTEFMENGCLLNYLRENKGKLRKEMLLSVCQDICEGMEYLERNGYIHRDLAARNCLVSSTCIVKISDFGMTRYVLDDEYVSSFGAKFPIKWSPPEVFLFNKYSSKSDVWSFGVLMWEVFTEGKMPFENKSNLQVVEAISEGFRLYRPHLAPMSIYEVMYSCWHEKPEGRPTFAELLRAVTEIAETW

YES = biological target: T12, YES (Homo sapiens, UniProt P07947); details: primary screen, 10 μM; read-out: percent of DMSO vehicle control
T12 construct: the DNA-tagged SH2 domain concentrations used in this study were <0.1 nM; made in house; host or cells: HEK293 (transient transfection; unpurified cell extract)
T12 sequence (P07947 158-255 limits assumed): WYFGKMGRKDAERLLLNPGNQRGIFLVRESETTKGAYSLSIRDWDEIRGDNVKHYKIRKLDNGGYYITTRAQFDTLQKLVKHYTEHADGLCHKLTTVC

T5 sequence (P07948 129-226 limits assumed): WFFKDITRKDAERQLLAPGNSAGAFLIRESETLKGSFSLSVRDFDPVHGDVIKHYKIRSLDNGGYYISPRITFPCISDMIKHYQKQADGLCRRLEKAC
T1 sequence (Q13191 241-343 limits assumed): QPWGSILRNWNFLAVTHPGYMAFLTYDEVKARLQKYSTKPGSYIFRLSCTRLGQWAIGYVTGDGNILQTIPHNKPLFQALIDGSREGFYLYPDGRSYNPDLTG
T2 sequence (P42685 116-208 limits assumed): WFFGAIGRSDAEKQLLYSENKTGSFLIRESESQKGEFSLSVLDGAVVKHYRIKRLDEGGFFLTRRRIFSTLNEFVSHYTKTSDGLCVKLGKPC

O=C(COc1ccc2cc(C(=O)Nc3ccccc3)ccc2c1)NCc1ccc(OP(=O)(O)O)c(OP(=O)(O)O)c1 [Stafib-1]
percent of DMSO vehicle control (CBLB): 78.9±15.9% | remaining activity at 10 µM (FRK): 65.3 ± 42.8% | remaining activity at 10 µM (GADS): 51.9 ± 12.6% | KD (ITK; dose-response): No Hit | percent of DMSO vehicle control (ITK; primary screen, 10 μM): 0±61.0% | remaining activity at 10 µM (LYN): 95.6 ± 22.4% | remaining activity at 10 µM (PLCG2(SH2dom.C-term.)): 80.4 ± 8.2% | remaining activity at 10 µM (PLCG2(SH2dom.N-term.)): 72.6 ± 27.2% | remaining activity at 10 µM (SH2B (SH2B1)): 92.7 ± 14.3% | Kd (SOCS4; dose-response, read-out: KD): 3.9 ± 0.87 µM | remaining activity at 10 µM (SOCS4; primary screen, 10 μM, read-out: percent of DMSO vehicle control): 25.5 ± 12.4% | remaining activity at 10 µM (TEC): 159% | remaining activity at 10 µM (TXK): 144% | remaining activity at 10 µM (YES): 63.1 ± 24.3%
